# Reference: patent US10010493B2, “Ester compound, and cosmetic component and cosmetic product each containing same” (Kokyu Alcohol Kogyo Co., Ltd., priority 2014, dated 2018)
# Entries after “also recorded” stand apart in the source; their conditions may differ.
# Tests used:
# Type in all cases: physicochemical
# [1] = Glossiness (refractive index), Abbe refractometer NTR-2T; details: 20° C.
# Method: Measurement is carried out using Abbe refractometer NTR-2T (Atago Co., Ltd.) at 20° C., and resulting values represent refractive index.
# [2] = Viscosity, Brookfield viscometer DV-II+; details: 25° C., spindle No. 2, 12 rpm
# Method: Viscosity of ester compounds was measured using Brookfield viscometer DV-II+ (spindle No. 2, 12 rpm, 25° C.). As a comparison, viscosity of oil agents commonly used in cosmetic products was also measured.
# [3] = Smoothness (MIU, MMD), KES-SE Friction Tester on artificial leather; details: for MIU (mean frictional coefficient) / MMD (fluctuation of mean frictional coefficient): 25° C., 0.1 ml on artificial leather, average of three; for Smoothness in comparison with other oil agents: comparison of MIU at similar viscosity
# Method: Smoothness of ester compounds was measured using KES-SE Friction Tester (Kato Tech Co., Ltd.) with a detection-unit jig (an accessory of the tester, made of silicone rubber with irregularities resembling a human finger) and artificial leather (artificial leather Supplare produced by Idemitsu Technofine Co., Ltd.). On the artificial leather, 0.1 ml of an ester compound was droped. The jig was contacted to the site on the surface of the artificial leather where the oil agent was dropped. Temperature of the leather, oil agent and jig was adjusted to 25° C. in a constant temperature bath. Then, the jig was moved back and forth once at the same site with a speed of 1 mm/s (the moving distance of the jig was approximately 80 mm in one back-and-forth movement), and a mean frictional coefficient (MIU) and a fluctuation of mean frictional coefficient (MMD) for one back-and-forth movement were measured. The measurement was performed three times and the average values of MIU and MMD were calculated, which were used as indices of smoothness. For comparison, MIU and MMD of the various ester compounds used in the viscosity measurement were also measured.
# [4] = Ultraviolet absorber solubility in oily bases; further: key: C: Soluble; N: Insoluble; (N): Since it is insoluble when ultraviolet absorber is 3%, it is judged to be probably insoluble at 5% as well
# Method: Their state after 1 week was evaluated visually.
# [5] = Compatibility with various types of oil agent; design: key to Compatibility with Hydrogenated polyisobutene / Compatibility with Isononyl isononanoate / Compatibility with Neopentyl glycol diethylhexanoate / Compatibility with Triethylhexanoin / Compatibility with Octyldodecanol / Compatibility with Polyglyceryl-2 triisostearate / Compatibility with Diisostearyl malate / Compatibility with Olive oil / Compatibility with Isostearic acid / Compatibility with Cyclomethicone / Compatibility with Dimethicone (10 mm^2/s) / Compatibility with Ethanol / Compatibility with Glycerin / Compatibility with Squalane / Compatibility with Mineral oil: C: Compatible; N: Not compatible; details: for Compatibility with Cyclomethicone / Compatibility with Dimethicone (10 mm^2/s) / Compatibility with Ethanol / Compatibility with Glycerin / Compatibility with Hydrogenated polyisobutene / Compatibility with Isostearic acid / Compatibility with Mineral oil / Compatibility with Octyldodecanol / Compatibility with Olive oil / Compatibility with Polyglyceryl-2 triisostearate / Compatibility with Squalane / Compatibility with Triethylhexanoin / Compatibility with Diisostearyl malate / Compatibility with Isononyl isononanoate / Compatibility with Neopentyl glycol diethylhexanoate: 25° C., visual after 1 week
# Method: Each of TCDNP and TCDDNP obtained in Synthesis Examples 1 and 8 and each of oily bases are combined with a weight ratio of 9:1 or 1:1, and dissolved in a water bath at 80-90° C. for approximately 30 min with stirring, then cooled to 50° C. with stirring, and stored in a thermostatic chamber at 25° C. Their compatibility was evaluated by visually checking the state after 1 week.
# [6] = Tinosorb S 5%, 25° C., visual after 1 week
# [7] = Tinosorb S 2%, 25° C., visual after 1 week
# [8] = Tinosorb S 7%, 25° C., visual after 1 week
# [9] = Tinosorb S 5%, judged from insolubility at 3%
compound,measurement,setting,value
"CC(C)C(=O)OCC1CC2CC1C1CCCC21 (centres unmarked) [TCDIB, tricyclo[5.2.1.0^2,6]deca-8-yl-methyl isobutanoate]",Refractive index,[1],1.483
same,Viscosity,[2],15 mPa · s
same,MIU (mean frictional coefficient),[3],0.27
same,MMD (fluctuation of mean frictional coefficient),[3],0.005
"CC(C)CCCCCCCCCCCCCCCOC(=O)C(C)(C)C [Isostearyl neopentanoate, reference compound]",Refractive index,[1],1.446
same,Viscosity,[2],14 mPa · s
same,MIU (mean frictional coefficient),[3],0.27
same,MMD (fluctuation of mean frictional coefficient),[3],0.006
same,Solubility of ultraviolet absorber Tinosorb S in the component,[4]; [6],N
"CC(C)(C)C(=O)OCC1CC2CC1C1CCC(COC(=O)C(C)(C)C)C21 (centres unmarked) [TCDDNP, 3,8-bis-(neopentanoyloxymethyl)-tricyclo[5.2.1.0^2,6]decane]",Refractive index,[1],1.472
same,Viscosity,[2],462 mPa · s
same,MIU (mean frictional coefficient),[3],0.28
same,MMD (fluctuation of mean frictional coefficient),[3],0.006
same,Compatibility with the oil agents (overall),[5],excellent compatibility with the oil agents other than glycerin
same,Compatibility with Cyclomethicone,[5]; 10%,C
same,Compatibility with Dimethicone (10 mm^2/s),[5]; 10%,C
same,Compatibility with Ethanol,[5]; 10%,C
same,Compatibility with Glycerin,[5]; 10%,N
same,Compatibility with Hydrogenated polyisobutene,[5]; 10%,C
same,Compatibility with Isostearic acid,[5]; 10%,C
same,Compatibility with Mineral oil,[5]; 10%,C
same,Compatibility with Octyldodecanol,[5]; 10%,C
same,Compatibility with Olive oil,[5]; 10%,C
same,Compatibility with Polyglyceryl-2 triisostearate,[5]; 10%,C
same,Compatibility with Squalane,[5]; 10%,C
same,Compatibility with Triethylhexanoin,[5]; 10%,C
same,Compatibility with Cyclomethicone,[5]; 50%,C
same,Compatibility with Dimethicone (10 mm^2/s),[5]; 50%,C
same,Compatibility with Ethanol,[5]; 50%,C
same,Compatibility with Glycerin,[5]; 50%,N
same,Compatibility with Hydrogenated polyisobutene,[5]; 50%,C
same,Compatibility with Isostearic acid,[5]; 50%,C
same,Compatibility with Mineral oil,[5]; 50%,C
same,Compatibility with Octyldodecanol,[5]; 50%,C
same,Compatibility with Olive oil,[5]; 50%,C
same,Compatibility with Polyglyceryl-2 triisostearate,[5]; 50%,C
same,Compatibility with Squalane,[5]; 50%,C
same,Compatibility with Triethylhexanoin,[5]; 50%,C
"CCCCC(=O)OCC1CC2CC1C1CCCC21 (centres unmarked) [TCDP, tricyclo[5.2.1.0^2,6]deca-8-yl-methyl-n-pentanoate]",Refractive index,[1],1.484
same,Viscosity,[2],15 mPa · s
same,MIU (mean frictional coefficient),[3],0.29
same,MMD (fluctuation of mean frictional coefficient),[3],0.005
Polyglyceryl-2 triisostearate [reference compound],Viscosity,[2],339 mPa · s
same,MIU (mean frictional coefficient),[3],0.31
same,MMD (fluctuation of mean frictional coefficient),[3],0.008
Isopropyl dimerate,Solubility of ultraviolet absorber Tinosorb S in the component,[4]; [7],N
CC(C)COC(=O)CCCCC(=O)OCC(C)C [Diisobutyl adipate],Solubility of ultraviolet absorber Tinosorb S in the component,[4]; [8],N
"CCCCCCCCCCC(CO)CCCCCCCC (centres unmarked) [Octyldodecanol, reference compound]",Viscosity,[2],49 mPa · s
same,MIU (mean frictional coefficient),[3],0.39
same,MMD (fluctuation of mean frictional coefficient),[3],0.007
"CC(C)(C)C(=O)OCC1CC2CC1C1CCCC21 (centres unmarked) [TCDNP, tricyclo[5.2.1.0^2,6]deca-8-yl-methyl neopentanoate]",Refractive index,[1],1.479
same,Viscosity,[2],32 mPa · s
same,MIU (mean frictional coefficient),[3],0.25
same,MMD (fluctuation of mean frictional coefficient),[3],0.006
same,Smoothness in comparison with other oil agents,[3],superior smoothness than squalane; also recorded: comparable to dimethicone
same,Compatibility with the oil agents (overall),[5],excellent compatibility with the oil agents other than glycerin
same,Compatibility with Cyclomethicone,[5]; 10%,C
same,Compatibility with Diisostearyl malate,[5]; 10%,C
same,Compatibility with Dimethicone (10 mm^2/s),[5]; 10%,C
same,Compatibility with Ethanol,[5]; 10%,C
same,Compatibility with Glycerin,[5]; 10%,N
same,Compatibility with Hydrogenated polyisobutene,[5]; 10%,C
same,Compatibility with Isononyl isononanoate,[5]; 10%,C
same,Compatibility with Mineral oil,[5]; 10%,C
same,Compatibility with Neopentyl glycol diethylhexanoate,[5]; 10%,C
same,Compatibility with Octyldodecanol,[5]; 10%,C
same,Compatibility with Polyglyceryl-2 triisostearate,[5]; 10%,C
same,Compatibility with Squalane,[5]; 10%,C
same,Compatibility with Cyclomethicone,[5]; 50%,C
same,Compatibility with Diisostearyl malate,[5]; 50%,C
same,Compatibility with Dimethicone (10 mm^2/s),[5]; 50%,C
same,Compatibility with Ethanol,[5]; 50%,C
same,Compatibility with Glycerin,[5]; 50%,N
same,Compatibility with Hydrogenated polyisobutene,[5]; 50%,C
same,Compatibility with Isononyl isononanoate,[5]; 50%,C
same,Compatibility with Mineral oil,[5]; 50%,C
same,Compatibility with Neopentyl glycol diethylhexanoate,[5]; 50%,C
same,Compatibility with Octyldodecanol,[5]; 50%,C
same,Compatibility with Polyglyceryl-2 triisostearate,[5]; 50%,C
same,Compatibility with Squalane,[5]; 50%,C
same,Solubility of ultraviolet absorber Tinosorb S in the component,[4]; [8],N
CCCCCCCCCC(=O)OCC(C)(C)COC(=O)CCCCCCCCC [Neopentyl glycol dicaprate],Solubility of ultraviolet absorber Tinosorb S in the component,[4]; [8],N
CC(C)CCCCCCOC(=O)CCCCCC(C)C [Isononyl isononanoate],Solubility of ultraviolet absorber Tinosorb S in the component,[4]; [6],N
CC(C)CCCCCC(=O)OCC(C)(C)COC(=O)CCCCCC(C)C [Neopentyl glycol diisononanoate],Solubility of ultraviolet absorber Tinosorb S in the component,[4]; [9],(N)
CCCCC(CC)C(=O)OCC(C)(C)COC(=O)C(CC)CCCC (centres unmarked) [Neopentyl glycol diethylhexanoate],Solubility of ultraviolet absorber Tinosorb S in the component,[4]; [6],N
"CC(C)CCCCCCCCCCOC(=O)CCCCCC(C)C [Isotridecyl isononanoate, reference compound]",Refractive index,[1],1.445
same,Solubility of ultraviolet absorber Tinosorb S in the component,[4]; [9],(N)
Ethylhexyl isononanoate,Solubility of ultraviolet absorber Tinosorb S in the component,[4]; [6],N
"tricyclo[5.2.1.0^2,6]deca-8-yl-methyl isostearate [TCDIS]",Refractive index,[1],1.482
same,Viscosity,[2],85 mPa · s
same,MIU (mean frictional coefficient),[3],0.40
same,MMD (fluctuation of mean frictional coefficient),[3],0.006
"CC(CC(=O)OCC1CC2CC1C1CCCC21)CC(C)(C)C (centres unmarked) [TCDIN, tricyclo[5.2.1.0^2,6]deca-8-yl-methyl isononanoate]",Refractive index,[1],1.479
same,Viscosity,[2],44 mPa · s
same,MIU (mean frictional coefficient),[3],0.31
same,MMD (fluctuation of mean frictional coefficient),[3],0.006
same,Smoothness in comparison with other oil agents,[3],superior smoothness than squalane
same,Solubility of ultraviolet absorber Tinosorb S in the component,[4]; [6],N
Ethylhexyl hydroxystearate,Solubility of ultraviolet absorber Tinosorb S in the component,[4]; [9],(N)
Pentaerythrityl tetraisostearate [reference compound],Refractive index,[1],1.468
"CCCCCCCCCCCCCCCCCC(=O)OC(CCCCCC)CCCCCCCCCCC(=O)OCC(CCCCCCCC)CCCCCCCCCC (centres unmarked) [Octyldodecyl stearoyloxy stearate, reference compound]",Viscosity,[2],96 mPa · s
same,MIU (mean frictional coefficient),[3],0.41
same,MMD (fluctuation of mean frictional coefficient),[3],0.006
same,Solubility of ultraviolet absorber Tinosorb S in the component,[4]; [7],N
"CCCCCCCCCCC(CO)CCCCCCCCCC [Decyldodecanol, reference compound]",Viscosity,[2],69 mPa · s
same,MIU (mean frictional coefficient),[3],0.40
same,MMD (fluctuation of mean frictional coefficient),[3],0.006
CCOC(=O)CCCCCCCCCCCCCCC(C)C [Ethyl isostearate],Solubility of ultraviolet absorber Tinosorb S in the component,[4]; [6],N
"CC(C)CCCC(C)CCCC(C)CCCCC(C)CCCC(C)CCCC(C)C (centres unmarked) [Squalane, reference compound]",Viscosity,[2],32 mPa · s
same,MIU (mean frictional coefficient),[3],0.40
same,MMD (fluctuation of mean frictional coefficient),[3],0.007
"CC(C)CCCCCCCOC(=O)C(C)(C)C [Isodecyl neopentanoate, reference compound]",Refractive index,[1],1.430
same,Viscosity,[2],4 mPa · s
same,MIU (mean frictional coefficient),[3],0.15
same,MMD (fluctuation of mean frictional coefficient),[3],0.005
same,Solubility of ultraviolet absorber Tinosorb S in the component,[4]; [6],N
